Reference: patent US10532106B2 (priority 2014, dated 2020)
Read-outs that look alike come from different tables or passages of the source. Numbered stars: 1 amine (or outer) side, 2 acyl side, 3 side chain; on linkers, the order of the positions; unused ones are H or OH. Bridge positions count the residues as written; N and C are the ends. Square brackets hold non-standard residues; d marks the D form. Peptide text beside a SMILES is read from it. * marks the point of attachment. DOTA = O=C(O)CN1CCN(CC(=O)O)CCN(CC(=O)*)CCN(CC(=O)O)CC1; Phe(F5) = N[C@@H](Cc1c(F)c(F)c(F)c(F)c1F)C(=O)O; Phe(4-Br) = N[C@@H](Cc1ccc(Br)cc1)C(=O)O; 1Nal = N[C@@H](Cc1cccc2ccccc12)C(=O)O; TBMB = c1c(C[*:1])cc(C[*:3])cc1C[*:2]; Tle = CC(C)(C)[C@H](N)C(=O)O; Sar = CNCC(=O)O

Molecular target: T1, MT1-MMP hemopexin domain (Homo sapiens, UniProt P50281)
T1 construct: residues Cys319-Gly511 from the human gene; His6 (N); made in house; host or cells: HEK293 (transient), pEXPR-IBA42 vector
Experiment: Competition assay using fluorescence polarisation
Format: binding
Conditions: for Kd: read-out: Kd
Excerpt: Here, a pre-formed complex of PEX with the fluorescent PEX-binding tracer is titrated with free, non-fluoresceinated bicyclic peptide. Since all 17-69-based peptides are expected to bind at the same site, the titrant will displace the fluorescent tracer from PEX. Dissociation of the complex can be measured quantitatively, and the Kd of the competitor (titrant) to the target protein determined. The advantage of the competition method is that the affinities of non-fluoresceinated bicyclic peptides can be determined accurately and rapidly.
Subsequently, the non-fluorescent competitor bicyclic peptide (usually just the bicycle core sequence) is titrated, such that it displaces the fluorescent tracer from the target protein. The displacement of the tracer is measured and associated with a drop in fluorescence polarisation. The drop in fluorescence polarisation is proportional to the fraction of target protein bound with the non-fluorescent titrant, and thus is a measure of the affinity of titrant to target protein.
The raw data is fit to the analytical solution of the cubic equation that describes the equilibria between fluorescent tracer, titrant, and binding protein. The fit requires the value of the affinity of fluorescent tracer to the target protein, which can be determined separately by direct binding FP experiments (see previous section).

[1] = Table 12, molecules selected for plasma stability assessment

| SMILES | potency / activity toward MT1-MMP, in words | Kd (Table 15, DOTA-linked peptides) [nM] | other results |
| --- | --- | --- | --- |
| CC[C@H](C)[C@@H]1NC(=O)[C@H](CC(=O)O)NC(=O)[C@H](Cc2ccc(O)cc2)NC(=O)[C@H](Cc2ccccc2)NC(=O)[C@H](CC(=O)O)NC(=O)[C@H](CCC(=O)O)NC(=O)[C@@H]2CSCc3cc(cc(c3)CSC[C@H](NC(C)=O)C(=O)N[C@@H](Cc3ccc(O)cc3)C(=O)N[C@@H](CC(N)=O)C(=O)N[C@@H](CCC(=O)O)C(=O)N[C@@H](CCc3ccccc3)C(=O)NCC(=O)N2)CSC[C@@H](C(N)=O)NC1=O [17-69-07-N140, Ac-(17-69-07) HPhe4] |  |  | Kd (Table 8, substitutions at position 4): 43.3 nM |
| CC[C@H](C)[C@@H]1NC(=O)[C@H](CC(=O)O)NC(=O)[C@H](Cc2ccc(O)cc2)NC(=O)[C@H](Cc2ccccc2)NC(=O)[C@H](CC(=O)O)NC(=O)[C@H](CCC(=O)O)NC(=O)[C@@H]2CSCc3cc(cc(c3)CSC[C@H](NC(=O)[C@H](C)NC(=O)CN3CCN(CC(=O)O)CCN(CC(=O)O)CCN(CC(=O)O)CC3)C(=O)N[C@@H](Cc3ccc(O)cc3)C(=O)N[C@@H](CC(N)=O)C(=O)N[C@@H](CCC(=O)O)C(=O)N[C@@H](Cc3ccccc3)C(=O)NCC(=O)N2)CSC[C@@H](C(N)=O)NC1=O [17-69-07-N144, DOTA-A-(17-69-07)] | retains full potency to MT1-MMP | 0.5 |  |
| CC[C@H](C)[C@@H]1NC(=O)[C@H](CC(=O)O)NC(=O)[C@H](Cc2ccc(O)cc2)NC(=O)[C@H](Cc2ccccc2)NC(=O)[C@H](CC(=O)O)NC(=O)[C@H](CCC(=O)O)NC(=O)[C@@H]2CSCc3cc(cc(c3)CSC[C@H](NC(=O)[C@H](C)NC(=O)CN3CCN(CC(=O)O)CCN(CC(=O)O)CCN(CC(=O)O)CC3)C(=O)N[C@@H](Cc3ccc(O)cc3)C(=O)N[C@@H](CC(N)=O)C(=O)N[C@@H](CCC(=O)O)C(=O)N[C@@H](Cc3ccccc3)C(=O)NCC(=O)N2)CSC[C@@H](C(N)=O)NC1=O [17-69-07-N147, DOTA[Lu]-A-(17-69-07)] |  | 0.95 ± 0.5 |  |
| CC[C@H](C)[C@@H]1NC(=O)[C@H](CC(=O)O)NC(=O)[C@H](Cc2c(F)c(F)c(F)c(F)c2F)NC(=O)[C@H](Cc2ccccc2)NC(=O)[C@H](CC(=O)O)NC(=O)[C@H](CCC(=O)O)NC(=O)[C@@H]2CSCc3cc(cc(c3)CSC[C@H](NC(C)=O)C(=O)N[C@@H](Cc3ccc(O)cc3)C(=O)N[C@@H](CC(N)=O)C(=O)N[C@@H](CCC(=O)O)C(=O)N[C@@H](Cc3ccccc3)C(=O)NCC(=O)N2)CSC[C@@H](C(N)=O)NC1=O [17-69-07-N182, Ac-(17-69-07) 5FPhe9] (Ac-CYNEFGCEDF[Phe(F5)]DIC-NH2; linker 1-7-14 via TBMB) |  |  | Kd (Table 9, tolerated substitutions at positions 9 and 11): 13.1 nM |
| CC[C@H](C)[C@@H]1NC(=O)[C@H](CC(=O)O)NC(=O)[C@H](Cc2ccc(O)cc2)NC(=O)[C@H](Cc2ccccc2)NC(=O)[C@H](CC(=O)O)NC(=O)[C@H](CCC(=O)O)NC(=O)[C@@H]2CSCc3cc(cc(c3)CSC[C@H](NC(=O)[C@H](C)NC(=O)CN(C)C(=O)CN(C)C(=O)CN(C)C(=O)CN(C)C(=O)CN(C)C(=O)CN(C)C(=O)CN(C)C(=O)CN(C)C(=O)CN(C)C(=O)CN(C)C(=O)CNC(C)=O)C(=O)N[C@@H](Cc3ccc(O)cc3)C(=O)N[C@@H](CC(N)=O)C(=O)N[C@@H](CCC(=O)O)C(=O)N[C@@H](Cc3ccccc3)C(=O)NCC(=O)N2)CSC[C@@H](C(N)=O)NC1=O [17-69-07-N225, Ac-G-Sar10-A-(17-69-07)] (Ac-G[Sar][Sar][Sar][Sar][Sar][Sar][Sar][Sar][Sar][Sar]ACYNEFGCEDFYDIC-NH2; linker 13-19-26 via TBMB) |  |  | Kd (Table 11, G-Sar10-A addition): 0.95 ± 0.1 nM |
| C[C@H](NC(=O)CN(C)C(=O)CN(C)C(=O)CN(C)C(=O)CN(C)C(=O)CN(C)C(=O)CN(C)C(=O)CN(C)C(=O)CN(C)C(=O)CN(C)C(=O)CN(C)C(=O)CN)C(=O)N[C@H]1CSCc2cc3cc(c2)CSC[C@H](NC(=O)[C@@H](C)NC(=O)[C@H](Cc2cccc4ccccc24)NC(=O)[C@H](CCC(=O)O)NC(=O)[C@H](CC(N)=O)NC(=O)[C@@H](C)NC1=O)C(=O)N[C@@H](CCC(=O)O)C(=O)N[C@@H](CC(=O)O)C(=O)N[C@@H](Cc1ccccc1)C(=O)N[C@@H](Cc1ccc(O)cc1)C(=O)N[C@@H](CC(=O)O)C(=O)N[C@@H](C(C)(C)C)C(=O)N[C@H](C(N)=O)CSC3 [17-69-07-N231, G-Sar10-A-(17-69-07) D-Ala1 1Nal4 D-Ala5 tBuGly11] (H-G[Sar][Sar][Sar][Sar][Sar][Sar][Sar][Sar][Sar][Sar]AC[dA]NE[1Nal][dA]CEDFYD[Tle]C-NH2; linker 13-19-26 via TBMB) |  |  | Kd [1]: 1.07 ± 0.28 nM |
| CC(=O)NCC(=O)N(C)CC(=O)N(C)CC(=O)N(C)CC(=O)N(C)CC(=O)N(C)CC(=O)N(C)CC(=O)N(C)CC(=O)N(C)CC(=O)N(C)CC(=O)N(C)CC(=O)N[C@@H](C)C(=O)N[C@H]1CSCc2cc3cc(c2)CSC[C@H](NC(=O)[C@@H](C)NC(=O)[C@H](Cc2cccc4ccccc24)NC(=O)[C@H](CCC(=O)O)NC(=O)[C@H](CC(N)=O)NC(=O)[C@@H](C)NC1=O)C(=O)N[C@@H](CCC(=O)O)C(=O)N[C@@H](CC(=O)O)C(=O)N[C@@H](Cc1ccccc1)C(=O)N[C@@H](Cc1ccc(O)cc1)C(=O)N[C@@H](CC(=O)O)C(=O)N[C@@H](C(C)(C)C)C(=O)N[C@H](C(N)=O)CSC3 [17-69-07-N239, Ac-G-Sar10-A-(17-69-07) D-Ala1 1Nal4 D-Ala5 tBuGly11] (Ac-G[Sar][Sar][Sar][Sar][Sar][Sar][Sar][Sar][Sar][Sar]AC[dA]NE[1Nal][dA]CEDFYD[Tle]C-NH2; linker 13-19-26 via TBMB) | potency which is superior to wildtype |  | Kd (Table 11, G-Sar10-A addition): 0.94 ± 0.08 nM |
| C[C@H](NC(=O)CN(C)C(=O)CN(C)C(=O)CN(C)C(=O)CN(C)C(=O)CN(C)C(=O)CN(C)C(=O)CN(C)C(=O)CN(C)C(=O)CN(C)C(=O)CN(C)C(=O)CN)C(=O)N[C@H]1CSCc2cc3cc(c2)CSC[C@H](NC(=O)[C@@H](C)NC(=O)[C@H](Cc2cccc4ccccc24)NC(=O)[C@H](CCC(=O)O)NC(=O)[C@H](CC(N)=O)NC(=O)[C@@H](C)NC1=O)C(=O)N[C@@H](CCC(=O)O)C(=O)N[C@@H](CC(=O)O)C(=O)N[C@@H](Cc1ccccc1)C(=O)N[C@@H](Cc1ccc(Br)cc1)C(=O)N[C@@H](CC(=O)O)C(=O)N[C@@H](C(C)(C)C)C(=O)N[C@H](C(N)=O)CSC3 [17-69-07-N244, G-Sar10-A-(17-69-07) D-Ala1 1Nal4 D-Ala5 4BrPhe9 tBuGly11] (H-G[Sar][Sar][Sar][Sar][Sar][Sar][Sar][Sar][Sar][Sar]AC[dA]NE[1Nal][dA]CEDF[Phe(4-Br)]D[Tle]C-NH2; linker 13-19-26 via TBMB) | potency which is superior to wildtype |  | Kd [1]: 0.45 ± 0.19 nM |
| CC[C@@H](C)[C@H]1NC(=O)[C@@H](CC(=O)O)NC(=O)[C@@H](Cc2ccc(O)cc2)NC(=O)[C@@H](Cc2ccccc2)NC(=O)[C@@H](CC(=O)O)NC(=O)[C@@H](CCC(=O)O)NC(=O)[C@H]2CSCc3cc(cc(c3)CSC[C@@H](NC(=O)[C@@H](C)NC(=O)CN3CCN(CC(=O)O)CCN(CC(=O)O)CCN(CC(=O)O)CC3)C(=O)N[C@H](Cc3ccc(O)cc3)C(=O)N[C@H](CC(N)=O)C(=O)N[C@H](CCC(=O)O)C(=O)N[C@H](Cc3ccccc3)C(=O)NCC(=O)N2)CSC[C@H](C(N)=O)NC1=O [17-69-07-N246, DOTA-A-(17-69-07) All D Amino Acids] | lacks any activity toward MT1-MMP | > 5000 |  |
| C[C@H](NC(=O)CN1CCN(CC(=O)O)CCN(CC(=O)O)CCN(CC(=O)O)CC1)C(=O)N[C@H]1CSCc2cc3cc(c2)CSC[C@H](NC(=O)[C@@H](C)NC(=O)[C@H](Cc2cccc4ccccc24)NC(=O)[C@H](CCC(=O)O)NC(=O)[C@H](CC(N)=O)NC(=O)[C@@H](C)NC1=O)C(=O)N[C@@H](CCC(=O)O)C(=O)N[C@@H](CC(=O)O)C(=O)N[C@@H](Cc1ccccc1)C(=O)N[C@@H](Cc1ccc(Br)cc1)C(=O)N[C@@H](CC(=O)O)C(=O)N[C@@H](C(C)(C)C)C(=O)N[C@H](C(N)=O)CSC3 [17-69-07-N248, DOTA-A-(17-69-07) D-Ala1 1Nal4 D-Ala5 4BrPhe9 tBuGly11] ({DOTA}-AC[dA]NE[1Nal][dA]CEDF[Phe(4-Br)]D[Tle]C-NH2; linker 2-8-15 via TBMB) | retained potency | 0.5 |  |
| CC(=O)N[C@H]1CSCc2cc3cc(c2)CSC[C@H](NC(=O)[C@@H](C)NC(=O)[C@H](Cc2cccc4ccccc24)NC(=O)[C@H](CCC(=O)O)NC(=O)[C@H](CC(N)=O)NC(=O)[C@@H](C)NC1=O)C(=O)N[C@@H](CCC(=O)O)C(=O)N[C@@H](CC(=O)O)C(=O)N[C@@H](Cc1ccccc1)C(=O)N[C@@H](Cc1ccc(Br)cc1)C(=O)N[C@@H](CC(=O)O)C(=O)N[C@@H](C(C)(C)C)C(=O)N[C@H](C(N)=O)CSC3 [17-69-07-N252, Ac-(17-69-07) D-Ala1 1Nal4 D-Ala5 4BrPhe9 tBuGly11] (Ac-C[dA]NE[1Nal][dA]CEDF[Phe(4-Br)]D[Tle]C-NH2; linker 1-7-14 via TBMB) | potency which is superior to wildtype |  | Kd (Table 10, multi-substitution): 0.8 ± 0.39 nM |
